According to paper PMC8453901, “GLPG1205, a GPR84 Modulator: Safety, Pharmacokinetics, and Pharmacodynamics in Healthy Subjects” (Clinical Pharmacology in Drug Development, 2021):
Read-outs that look alike come from different tables or passages of the source.

Columns and labels:
[1] = Study 1 SAD part: plasma pharmacokinetics after single oral doses; type: in vivo, human; settings: for half-life / Tmax / Cmax / AUC(0-inf) / AUC / concentration at 24 h: male, human, plasma, oral; for AUC: read-out: AUC0‐24h; for concentration at 24 h: read-out: C24h
Protocol: GLPG1205 or matching placebo were administered as an oral nanosuspension in the morning in a fed condition as an outpatient. For both the single ascending doses (SADs) and multiple ascending doses (MADs) parts of the study, subjects attended a screening visit (21 to 2 days before first study drug administration) and a follow‐up visit (7 to 10 days after the last dose).
The SAD part of the study comprised 16 healthy male subjects in 2 alternating cohorts (A and B, n = 8 each). Cohort A received GLPG1205 10, 90, 400, and 800 mg or matching placebo, and cohort B received GLPG1205 30, 200, and 600 mg or matching placebo. Subjects were randomly assigned to receive GLPG1205 or matching placebo in a 3:1 ratio once at the beginning of the study. In addition, subjects in cohorts A and B were randomized to a treatment sequence. […] An interval of at least 3 days was enforced between 2 dose levels (between cohort A and B). Subjects were kept in‐house from the evening of day –1 to ≈26 hours after dosing (morning of day 2).
In the SAD part of study 1, blood samples (2 mL) for PK assessments were obtained before dosing and at multiple time points on the day of study drug administration (before dosing and 0.5, 1, 2, 4, 6, 8, and 12 hours after dosing) and at 24, 48, and 72 hours after dosing. The predose sample for the next dose level was also used in PK analysis (168 hours after dosing). […] In the MAD part of study 1, blood samples (2 mL) were obtained on days 1, 2, 4, 5, 6, 8, 10, 12, 14, 15, 16, 17, and 18 and at follow‐up (approximately 7 to 10 days after the last dose). These PK blood samples were taken after dosing (1, 2, 4, 6, 8, 12, and 24 hours) on day 1; before dosing on days 4, 6, 8, and 10; and after dosing (1, 2, 4, 6, 8, 12, 24, 72, and 96 hours) on day 14. The following additional PK blood samples were also taken: cohort C, before dosing on day 5; and cohorts D and E, before dosing on day 12. Urine samples were obtained from fractions collected over 6‐ or 12‐hour periods after dosing on days –1, 1, 2, 13, 14, and 15; samples obtained on days –1 and 13 were for cytochrome P450 (CYP) induction analysis only. In study 2, blood samples (2 mL) were obtained on days 1, 2, 5, 7, 10, 14, 15, 17, and 20 and at follow‐up (approximately 21 days after end of study medication administration). Blood samples were taken before dosing and at 1, 2, 4, 6, 8, 12, and 24 hours after drug administration on days 1 and 14 and before dosing on other sampling days.
Blood samples were immediately chilled (ice bath), and the plasma was separated by centrifugation (4°C for 10 minutes at ≈1500 g) within 30 minutes of blood collection.
GLPG1205 plasma concentrations were determined using a validated liquid chromatography with tandem mass spectrometry method. After a protein precipitation with methanol, a chromatographic separation was performed on a Kinetex C18 column (50×3.0 mm, 2.6 μm; Phenomenex, Torrance, California) set at 40°C by using a Nexera high‐performance liquid chromatography (HPLC) system (Shimadzu, Kyoto, Japan) or an Infinity HPLC system (Agilent Technologies, Diegem, Belgium) in isocratic elution mode. A QTRAP6500, QTRAP4000, or API4000 mass spectrometer (AB Sciex, Nieuwerkerk aan den Ijssel, The Netherlands) equipped with a TurboIonSpray probe operated in the multiple reaction monitoring in positive mode was used for quantification. The calibration curves in plasma were linear over the range of 1 to 1000 ng/mL with 1/x^2 as weighting factor. The limit of quantification of the assay in the plasma samples was set at 1 ng/mL.
PK calculations were performed using Phoenix WinNonlin 6.2 (Pharsight Corporation, Palo Alto, California). […] AUC0‐inf was calculated from the area under the plasma concentration‐time curve from time 0 until the time corresponding with the last observed quantifiable concentration + Ct/λz, where Ct was the last observed quantifiable concentration and λz the first‐order terminal rate constant. […]

[2] = set-up: method as in PMID 32902984; settings: monkeys, up to 30 mg/kg/d; cited from earlier work
[3] = single 10 mg, arithmetic mean (CV%)
[4] = single 30 mg, arithmetic mean (CV%)
[5] = single 90 mg, arithmetic mean (CV%)
[6] = single 200 mg, arithmetic mean (CV%)
[7] = single 400 mg, arithmetic mean (CV%)
[8] = single 600 mg, arithmetic mean (CV%)
[9] = single 800 mg, arithmetic mean (CV%)

O=c1nc(OC[C@@H]2COCCO2)cc2n1CCc1cc(C#CC3CC3)ccc1-2 [GLPG1205, 9‐cyclopropylethynyl‐2‐((S)‐1‐[1,4]dioxan‐2‐ylmethoxy)‐6,7‐dihydropyrimido[6,1‐a]isoquinolin‐4‐one]
half-life ([1]; after single administration, 10 to 800 mg, read-out: arithmetic mean apparent terminal half-life (t1/2,λz) range): 30.1 to 140 h
Tmax ([1]; after single administration, 10 to 800 mg, read-out: median tmax range): 2 to 4 h
Cmax [1, 3]: 94.2 ng/mL
AUC(0-inf) ([1]; single 10 mg, arithmetic mean (CV%), N = 3): 3310 ng·h/mL
AUC [1, 3]: 1330 ng·h/mL
concentration at 24 h [1, 3]: 39.8 ng/mL
half-life ([1]; single 10 mg, arithmetic mean (CV%), read-out: t1/2,λz (converted)): 32.2 h
Cmax [1, 4]: 284 ng/mL
AUC(0-inf) ([1]; single 30 mg, arithmetic mean (CV%), N = 4): 11500 ng·h/mL
half-life ([1]; single 30 mg, arithmetic mean (CV%), N = 5, read-out: t1/2,λz (converted)): 30.1 h
AUC [1, 4]: 4470 ng·h/mL
concentration at 24 h [1, 4]: 144 ng/mL
Tmax ([1]; single 30 mg, median (minimum-maximum), read-out: tmax): 4 h
Cmax [1, 5]: 890 ng/mL
AUC(0-inf) ([1]; single 90 mg, arithmetic mean (CV%), N = 4): 52300 ng·h/mL
AUC [1, 5]: 14300 ng·h/mL
concentration at 24 h [1, 5]: 511 ng/mL
half-life ([1]; single 90 mg, arithmetic mean (CV%), read-out: t1/2,λz (converted)): 57.7 h
Tmax ([1]; single 90 mg, median (minimum-maximum), read-out: tmax): 4 h
Cmax [1, 6]: 2200 ng/mL
AUC(0-inf) ([1]; single 200 mg, arithmetic mean (CV%), N = 4): 120000 ng·h/mL
half-life ([1]; single 200 mg, arithmetic mean (CV%), N = 5, read-out: t1/2,λz (converted)): 54.3 h
AUC [1, 6]: 35800 ng·h/mL
concentration at 24 h [1, 6]: 1260 ng/mL
Tmax ([1]; single 200 mg, median (minimum-maximum), read-out: tmax): 3 h
Cmax [1, 7]: 3390 ng/mL
AUC [1, 7]: 58000 ng·h/mL
concentration at 24 h [1, 7]: 2150 ng/mL
half-life ([1]; single 400 mg, arithmetic mean (CV%), read-out: t1/2,λz (converted)): 92.4 h
AUC(0-inf) ([1]; single 400 mg, arithmetic mean, N = 2): 224000 ng·h/mL
Tmax ([1]; single 400 mg, median (minimum-maximum), read-out: tmax): 4 h
Cmax [1, 8]: 5530 ng/mL
half-life ([1]; single 600 mg, arithmetic mean (CV%), N = 3, read-out: t1/2,λz (converted)): 75 h
AUC [1, 8]: 94000 ng·h/mL
concentration at 24 h [1, 8]: 3410 ng/mL
Tmax ([1]; single 600 mg, median (minimum-maximum), read-out: tmax): 4 h
Cmax [1, 9]: 7500 ng/mL
AUC [1, 9]: 130000 ng·h/mL
concentration at 24 h [1, 9]: 5000 ng/mL
half-life ([1]; single 800 mg, arithmetic mean, N = 2, read-out: t1/2,λz (converted)): 140 h
Tmax ([1]; single 800 mg, median (minimum-maximum), read-out: tmax): 4 h
dose-proportionality of exposure ([1]; single doses between 10 and 800 mg): did not markedly deviate from dose‐proportionality
dose-proportionality of exposure [2]: increased dose‐proportionally
